Key:
[1] = system: STEME; test: Post-emergence action against STEME, 1.28 kg/ha; type: in vivo, Stellaria media; conditions: dosage 1280 g/ha, visual rating about 3 weeks after treatment vs untreated controls (100% = plants died)
How it was run: (§1)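 Spray at one-leaf stage with WP/EC + 0.5% additive, 600 L water/ha. Greenhouse, optimum conditions, ~3 wk. Visual % control vs untreated; 0 = no effect, 100 = dead.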

[2] = system: SETVI; test: Post-emergence action against SETVI, 1.28 kg/ha; type: in vivo, Setaria viridis; conditions: dosage 1280 g/ha, visual rating about 3 weeks after treatment vs untreated controls
How it was run: as §1

[3] = system: DIGSA; test: Post-emergence action against DIGSA, 1.28 kg/ha; type: in vivo, Digitaria sanguinalis; conditions: dosage 1280 g/ha, visual rating about 3 weeks after treatment vs untreated controls
How it was run: as §1

[4] = system: LOLRI; test: Pre-emergence action against LOLRI, 1280 g/ha; type: in vivo, Lolium rigidum; conditions: visual scoring after about 3 weeks vs untreated controls, 100% = plants have died, 0% = like control plants
How it was run: (§2)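 Mono- and dicot weed seeds sown in sandy loam were treated on the covering soil surface with WP or EC formulations plus 0.5% additive at 600 L water/ha. Pots stayed in a greenhouse; damage was scored visually after ~3 weeks as percent versus untreated controls (100% = dead).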

[5] = system: MATIN; test: Post-emergence action against MATIN, 1.28 kg/ha; type: in vivo, Tripleurospermum inodorum (Matricaria inodora); conditions: dosage 1280 g/ha, visual rating about 3 weeks after treatment vs untreated controls (100% = plants died)
How it was run: as §1

[6] = system: ABUTH; test: Pre-emergence action against ABUTH, 1280 g/ha; type: in vivo, Abutilon theophrasti; conditions: scored visually after about 3 weeks vs untreated controls (100% = plants have died)
How it was run: as §2

[7] = system: ALOMY; test: Post-emergence action against ALOMY, 320 g/ha; type: in vivo, Alopecurus myosuroides; conditions: dosage 320 g/ha, visual rating about 3 weeks after treatment vs untreated controls (100% = plants died)
How it was run: (§3)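 Herbicidal effect is scored by eye about 3 weeks after a foliar spray and expressed as percent activity, with untreated plants as 0% and dead plants as 100%. Treatment is applied at the one-leaf stage of greenhouse-grown, soil-sown plants, at a water rate of 600 l/ha containing 0.5% additive.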

[8] = system: LOLRI; test: Pre-emergence action at 320 g/ha against LOLRI; type: in vivo, Lolium rigidum; conditions: visual scoring after about 3 weeks vs untreated controls
How it was run: (§4)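 Weed and crop seeds sown in pots and covered with soil; WP or EC formulations sprayed pre-emergence onto the soil surface at 320 g/ha with 0.5% additive in 600 l/ha water. Kept in greenhouse; after about 3 weeks activity scored visually as % versus untreated controls (100% = plants dead, 0% = as control).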

[9] = system: AVEFA; test: Pre-emergence action at 320 g/ha against AVEFA; type: in vivo; conditions: visual scoring after about 3 weeks vs untreated controls
How it was run: as §4

[10] = system: VERPE; test: Post-emergence action against VERPE, 1.28 kg/ha; type: in vivo, Veronica persica; conditions: dosage 1280 g/ha, visual rating about 3 weeks after treatment vs untreated controls (100% = plants died)
How it was run: as §1

[11] = system: VERPE; test: Pre-emergence action at 320 g/ha against VERPE; type: in vivo, Veronica persica; conditions: visual scoring after about 3 weeks vs untreated controls
How it was run: as §4

[12] = system: DIGSA; test: Pre-emergence action against DIGSA, 1280 g/ha; type: in vivo, Digitaria sanguinalis; conditions: visual scoring after about 3 weeks vs untreated controls, 100% = plants have died, 0% = like control plants
How it was run: as §2

[13] = system: ALOMY; test: Post-emergence action against ALOMY, 1.28 kg/ha; type: in vivo, Alopecurus myosuroides; conditions: dosage 1280 g/ha, visual rating about 3 weeks after treatment vs untreated controls
How it was run: as §1

[14] = system: VERPE; test: Pre-emergence action against VERPE, 1280 g/ha; type: in vivo, Veronica persica; conditions: scored visually after about 3 weeks vs untreated controls (100% = plants have died)
How it was run: as §2

[15] = system: PHBPU; test: Post-emergence action at 320 g/ha against PHBPU; type: in vivo; conditions: visual rating about 3 weeks after treatment vs untreated controls
How it was run: as §3

[16] = system: AMARE; test: Post-emergence action at 320 g/ha against AMARE; type: in vivo, Amaranthus retroflexus; conditions: visual rating about 3 weeks after treatment vs untreated controls
How it was run: as §3

Structure (SMILES) | Post-emergence action against STEME [1] [%] | Post-emergence action against SETVI [2] [%] | Post-emergence action against DIGSA [3] [%] | Pre-emergence action against LOLRI [4] [%] | Post-emergence action against MATIN [5] [%] | Pre-emergence action against ABUTH [6] [%] | Post-emergence action against ALOMY [7] [%] | Pre-emergence action against LOLRI in % [8] [%] | Pre-emergence action against AVEFA in % [9] [%] | Post-emergence action against VERPE [10] [%] | Pre-emergence action against VERPE in % [11] [%] | Pre-emergence action against DIGSA [12] [%] | Post-emergence action against ALOMY [13] [%] | Pre-emergence action against VERPE [14] [%] | Post-emergence action against PHBPU in % [15] [%] | Post-emergence action against AMARE in % [16] [%]
COC(=O)COc1nn(-c2ccccc2F)c(-c2ccc(F)nc2)c1C(F)(F)F [VII-031] | 100 | 90 | 100 | 100 | 100 | 90 | 100 | 100 | 100 | 100 | 100 | 100 | 100 | 100 | 90 | 90
COC(=O)COc1nn(-c2ccccc2F)c(-c2cncc(F)c2)c1Br [VII-035] | 100 | 90 | 100 | 100 | 90 | 90 | 90 | 90 | 90 | 100 | 100 | 90 | 100 | 100 | 100 | 90
COC(=O)CCOC(=O)COc1nn(-c2ccccc2F)c(-c2ccc(F)nc2)c1Br [VII-111] | 100 | 100 | 100 | 100 | 100 | 90 | 100 | 100 | 90 | 90 | 100 | 100 | 100 | 100 | 80 | 90
